Where “and” joins values, the source holds several entries; their conditions need not be identical. Equal values may be shown once.
Assays:
Assay in all cases: pre-emergence test, weed control
[1] = tested on: Barnyardgrass (ECHCG); type: in vivo, Echinochloa crus-galli; conditions: pre-emergent, 28 DAT; rate g ai/ha by row: r5 94, r6 125, r7 250, r8 62.5, r9 125, r10 250, r11 94+62.5, r12 125+62.5, r13 94+125, r14 125+125, r15 94+250, r16 125+250, r17 78.8, r18 157.5, r19 315, r20 94+78.8, r21 125+78.8, r22 94+157.5, r23 125+157.5, r24 94+315, r25 125+315
Description: (§1) Test compositions containing the test compounds were diluted with water to provide the appropriate test rate concentrations.
(§2) For pre-emergence testing, four disposable fiber flats (6 inch by 10 inch) for each rate of application of each herbicide solution were filled with top soil, to which seeds of each species were planted in furrows made by a template pressed on the top of the soil. The furrows were covered with soil after planting the seed and were watered well before application of the test compounds.
Fiber flats designated for treatment were placed in a spray chamber having a static platform and a movable sprayer and the height of the spray nozzle was 10.5 inches above the soil level. Once the sprayer was calibrated using water for spray volume of 30 gallons per acre, flats were sprayed with sprayer at a speed to receive a coverage equivalent of 30 gallons per acre. […]
The control of weeds was evaluated in each experimental test at 21 for wheat and 28 days after treatment (DAT) for all species. Data were analyzed using Minitab software at 95% confidence interval. […] Percent control was determined by a method similar to the 0 to 100 rating system disclosed in “Research Methods in Weed Science,” 2nd ed., B. Truelove, Ed.; Southern Weed Science Society; Auburn University, Auburn, Ala., 1977. […]

[2] = tested on: Goosegrass (ELEIN); type: in vivo; conditions: pre-emergent, 28 DAT; rate g ai/ha by row: r5 94, r6 125, r7 250, r8 62.5, r9 125, r10 250, r11 94+62.5, r12 125+62.5, r13 94+125, r14 125+125, r15 94+250, r16 125+250, r17 78.8, r18 157.5, r19 315, r20 94+78.8, r21 125+78.8, r22 94+157.5, r23 125+157.5, r24 94+315, r25 125+315
Description: as §1, §2
(§3) Fiber flats designated for treatment were placed in a spray chamber having a static platform and a movable sprayer and the height of the spray nozzle was 10.5 inches above the soil level. Once the sprayer was calibrated using water for spray volume of 30 gallons per acre, flats were sprayed with sprayer at a speed to receive a coverage equivalent of 30 gallons per acre. The application rates are those shown in the Tables below for the individual herbicidal solutions and the herbicide compositions of this invention. The pre-emergence flats were immediately placed in the greenhouse and watered lightly after treatment. Thereafter they were regularly watered and fertilized for the duration of the test.
(§4) The control of weeds was evaluated in each experimental test at 21 for wheat and 28 days after treatment (DAT) for all species. Data were analyzed using Minitab software at 95% confidence interval. The results, shown as an average of the replications, were compared with results observed in untreated control flats in the same tests. Percent control was determined by a method similar to the 0 to 100 rating system disclosed in “Research Methods in Weed Science,” 2nd ed., B. Truelove, Ed.; Southern Weed Science Society; Auburn University, Auburn, Ala., 1977. The rating system is as follows in Table 1.

[3] = tested on: Large crabgrass (DIGSA); type: in vivo; conditions: pre-emergent, 28 DAT, rate g ai/ha by row: r4 94, r5 50, r6 100, r7 52.5, r8 70, r9 94+52.5, r10 94+70, r11 50+52.5, r12 50+70, r13 100+52.5, r14 100+70
Description: as §1, §2, §3, §4

[4] = tested on: Common lambsquarters (CHEAL); type: in vivo, Chenopodium album; conditions: pre-emergent, 28 DAT; rate g ai/ha by row: r5 94, r6 125, r7 250, r8 3.28, r9 6.56, r10 13.1, r11 94+3.28, r12 94+6.56, r13 94+13.1, r14 125+3.28, r15 125+6.56, r16 125+13.1
Description: as §1, §2, §3, §4

[5] = tested on: Rice flatsedge (CYPIR); type: in vivo; conditions: pre-emergent, 28 DAT; rate g ai/ha by row: r5 94, r6 125, r7 250, r8 3.28, r9 6.56, r10 13.1, r11 94+3.28, r12 94+6.56, r13 94+13.1, r14 125+3.28, r15 125+6.56, r16 125+13.1
Description: as §1, §2, §3, §4

[6] = tested on: Kochia (KCHSC); type: in vivo; conditions: pre-emergent, 28 DAT; rate g ai/ha by row: r5 94, r6 125, r7 250, r8 3.28, r9 6.56, r10 13.1, r11 94+3.28, r12 94+6.56, r13 94+13.1, r14 125+3.28, r15 125+6.56, r16 125+13.1
Description: as §1, §2, §3, §4

Row | SMILES | percentage of weed control, Barnyardgrass ECHCG [1] [%] | percentage of weed control, Goosegrass ELEIN [2] [%] | percentage of weed control, DIGSA ([3]; 52.5 g ai/ha) [%] | percentage of weed control, DIGSA ([3]; 70 g ai/ha) [%] | percentage of weed control, Common lambsquarters CHEAL [4] | percentage of weed control, Rice flatsedge CYPIR [5] | percentage of weed control, Kochia KCHSC [6]
1 | COC[C@H](C)N(C(=O)CCl)c1c(C)csc1C [Dimethanamid-P] | 100 | 96 | 20 | 25 |  |  | 
2 | COC(=O)c1c(Cl)nn(C)c1S(=O)(=O)NC(=O)Nc1nc(OC)cc(OC)n1 [Halosulfuron-methyl] |  |  |  |  | 86% and 56% and 90% | 95% and 71% and 99% | 66% and 38% and 40%
